Laboratory results reported in ChEMBL document CHEMBL5143607, “Discovery and structure-activity relationships of a novel oxazolidinone class of bacterial type II topoisomerase inhibitors” (Bioorg Med Chem Lett, 2022).
≈ marks a conversion by molar mass, not a printed value.

Assays:
[1] = molecular target: DNA gyrase (Escherichia coli, UniProt P0AES4+P0AES6); test: Inhibition of Escherichia coli DNA gyrase supercoiling activity; format: protein-complex assay
[2] = Inhibition of Escherichia coli topoisomerase 4 assessed as reduction in decatenation
[3] = Cytotoxicity against human HepG2 cells assessed as reduction in cell viability for 24 hrs by Celltiter-Glo assay; format: toxicity, cell-based
[4] = system: Acinetobacter baumannii; test: Antibacterial activity against Acinetobacter baumannii NCTC 13420 assessed as bacterial growth inhibition by CLSI protocol based assay; format: functional
[5] = system: Klebsiella pneumoniae; test: Antibacterial activity against Klebsiella pneumoniae ATCC 700603 assessed as bacterial growth inhibition by CLSI protocol based assay; format: functional
[6] = system: Pseudomonas aeruginosa; test: Antibacterial activity against Pseudomonas aeruginosa ATCC 27853 assessed as bacterial growth inhibition by CLSI protocol based assay; format: functional
[7] = system: Escherichia coli; test: Antibacterial activity against Escherichia coli W4573 assessed as bacterial growth inhibition by CLSI protocol based assay; format: functional
[8] = system: Escherichia coli; test: Antibacterial activity against Escherichia coli N43 assessed as bacterial growth inhibition by CLSI protocol based assay; format: functional
[9] = system: Staphylococcus aureus; test: Antibacterial activity against Staphylococcus aureus ATCC 29213 assessed as bacterial growth inhibition by CLSI protocol based assay; format: functional
[10] = molecular target: Voltage-gated inwardly rectifying potassium channel KCNH2 (Homo sapiens, UniProt Q12809); test: Inhibition of human ERG by Ionworks electrophysiology assay; format: toxicity
Sequence of Voltage-gated inwardly rectifying potassium channel KCNH2 (Q12809 whole entry): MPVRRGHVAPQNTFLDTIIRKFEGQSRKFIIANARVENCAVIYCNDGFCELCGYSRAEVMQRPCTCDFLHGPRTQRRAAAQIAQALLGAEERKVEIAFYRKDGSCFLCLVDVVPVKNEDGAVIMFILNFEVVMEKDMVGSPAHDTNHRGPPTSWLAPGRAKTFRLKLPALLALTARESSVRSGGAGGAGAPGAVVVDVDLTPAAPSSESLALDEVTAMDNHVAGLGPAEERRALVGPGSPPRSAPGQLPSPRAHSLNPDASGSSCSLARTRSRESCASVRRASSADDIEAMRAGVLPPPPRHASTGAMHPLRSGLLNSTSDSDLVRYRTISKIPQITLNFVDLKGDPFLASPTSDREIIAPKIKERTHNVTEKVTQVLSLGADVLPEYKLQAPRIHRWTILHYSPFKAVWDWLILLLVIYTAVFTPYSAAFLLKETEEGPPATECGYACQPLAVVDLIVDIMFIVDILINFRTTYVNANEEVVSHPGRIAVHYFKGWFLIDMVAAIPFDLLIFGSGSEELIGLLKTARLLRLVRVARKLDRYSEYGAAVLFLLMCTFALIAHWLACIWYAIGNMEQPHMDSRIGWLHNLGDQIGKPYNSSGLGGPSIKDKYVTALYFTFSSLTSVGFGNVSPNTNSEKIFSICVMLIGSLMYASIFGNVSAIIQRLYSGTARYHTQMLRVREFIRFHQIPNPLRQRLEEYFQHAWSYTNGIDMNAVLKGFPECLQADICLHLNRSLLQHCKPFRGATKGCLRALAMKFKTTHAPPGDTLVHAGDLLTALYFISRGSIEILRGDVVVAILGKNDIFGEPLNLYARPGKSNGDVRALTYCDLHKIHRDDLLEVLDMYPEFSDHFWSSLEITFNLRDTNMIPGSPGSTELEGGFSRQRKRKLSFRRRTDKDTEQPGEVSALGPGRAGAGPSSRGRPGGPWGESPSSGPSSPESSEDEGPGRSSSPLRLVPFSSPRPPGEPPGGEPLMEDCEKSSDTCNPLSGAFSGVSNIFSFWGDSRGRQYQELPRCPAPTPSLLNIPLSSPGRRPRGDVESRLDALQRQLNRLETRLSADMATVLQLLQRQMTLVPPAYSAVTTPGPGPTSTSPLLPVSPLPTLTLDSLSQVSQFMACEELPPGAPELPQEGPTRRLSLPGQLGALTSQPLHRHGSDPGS

[11] = Lipophilicity, logD of the compound by shake flask assay; format: physicochemical; conditions: octanol/water
[12] = Intrinsic clearance in mouse liver microsomes in presence of NADPH and measured upto 45 mins; format: ADME, Microsome; conditions: read-out: CLH
[13] = Intrinsic clearance in human liver microsomes in presence of NADPH and measured upto 45 mins; format: ADME, Microsome; conditions: read-out: CLH
[14] = Kinetic solubility of compound; format: physicochemical; conditions: read-out: Kinetic_solubility
[15] = Plasma protein binding in mouse assessed as free fraction by equilibrium dialysis assay; format: ADME, cell-free
[16] = molecular target: DNA topoisomerase 2-alpha (Homo sapiens, UniProt P11388); test: Inhibition of human topoisomerase 2 assessed as reduction in decatenation
Sequence of DNA topoisomerase 2-alpha (P11388 whole entry): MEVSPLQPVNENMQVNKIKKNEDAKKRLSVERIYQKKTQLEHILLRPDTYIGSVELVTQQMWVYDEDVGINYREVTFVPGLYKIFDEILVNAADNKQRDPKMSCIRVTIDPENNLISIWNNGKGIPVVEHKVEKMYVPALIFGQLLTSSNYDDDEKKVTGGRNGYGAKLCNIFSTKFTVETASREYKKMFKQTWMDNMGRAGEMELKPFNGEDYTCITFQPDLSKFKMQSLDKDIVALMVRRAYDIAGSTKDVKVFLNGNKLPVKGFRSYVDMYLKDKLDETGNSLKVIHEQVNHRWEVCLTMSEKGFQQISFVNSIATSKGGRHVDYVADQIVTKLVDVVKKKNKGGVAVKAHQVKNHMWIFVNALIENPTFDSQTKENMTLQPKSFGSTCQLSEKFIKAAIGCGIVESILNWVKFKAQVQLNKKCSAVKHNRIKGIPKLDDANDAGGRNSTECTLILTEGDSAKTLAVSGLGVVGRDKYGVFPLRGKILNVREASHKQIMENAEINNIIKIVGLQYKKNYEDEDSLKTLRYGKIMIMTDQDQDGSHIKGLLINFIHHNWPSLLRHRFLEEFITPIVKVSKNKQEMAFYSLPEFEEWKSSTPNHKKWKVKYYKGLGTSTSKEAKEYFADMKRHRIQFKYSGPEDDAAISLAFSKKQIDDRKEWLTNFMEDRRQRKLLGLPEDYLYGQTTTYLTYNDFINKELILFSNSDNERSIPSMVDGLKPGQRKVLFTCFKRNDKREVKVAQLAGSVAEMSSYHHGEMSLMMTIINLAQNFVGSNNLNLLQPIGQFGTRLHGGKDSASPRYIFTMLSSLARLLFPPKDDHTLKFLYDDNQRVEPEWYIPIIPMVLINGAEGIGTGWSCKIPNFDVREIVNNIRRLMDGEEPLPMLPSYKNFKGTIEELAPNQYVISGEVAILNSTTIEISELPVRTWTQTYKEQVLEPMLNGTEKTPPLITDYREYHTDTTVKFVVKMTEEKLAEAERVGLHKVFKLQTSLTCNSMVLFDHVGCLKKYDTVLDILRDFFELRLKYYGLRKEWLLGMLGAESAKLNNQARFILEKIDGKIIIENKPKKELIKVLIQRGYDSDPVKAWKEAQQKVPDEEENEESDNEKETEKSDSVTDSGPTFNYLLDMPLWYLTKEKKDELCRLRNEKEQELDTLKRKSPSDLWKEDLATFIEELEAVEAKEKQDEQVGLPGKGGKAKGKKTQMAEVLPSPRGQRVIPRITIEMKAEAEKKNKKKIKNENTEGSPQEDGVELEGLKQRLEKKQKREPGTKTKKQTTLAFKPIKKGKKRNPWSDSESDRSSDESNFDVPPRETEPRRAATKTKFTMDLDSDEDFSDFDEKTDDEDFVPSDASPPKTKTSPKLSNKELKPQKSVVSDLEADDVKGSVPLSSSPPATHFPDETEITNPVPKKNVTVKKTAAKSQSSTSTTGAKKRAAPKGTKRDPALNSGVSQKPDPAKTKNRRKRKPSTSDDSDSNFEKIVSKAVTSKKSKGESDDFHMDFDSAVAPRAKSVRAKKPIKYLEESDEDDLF

[17] = system: Escherichia coli; test: Antibacterial activity against Escherichia coli ATCC25922 assessed as bacterial growth inhibition by CLSI protocol based assay; format: functional
[18] = system: Escherichia coli; test: Resistance development in Escherichia coli ATCC25922 assessed as spontaneous resistance frequency at 4 times MIC by resistance development assay; format: functional
[19] = Protein binding in mouse plasma by equilibrium dialysis assay; format: ADME, cell-free; conditions: for fraction unbound: read-out: PPB (converted)
[20] = Protein binding in human plasma by equilibrium dialysis assay; format: ADME, cell-free; conditions: read-out: PPB (converted)
[21] = system: Acinetobacter baumannii; test: Antibacterial activity against […] Acinetobacter baumannii clinical isolate 43 assessed as bacterial growth inhibition by CLSI protocol based assay; format: functional
[22] = system: Pseudomonas aeruginosa; test: Antibacterial activity against Pseudomonas aeruginosa clinical isolate 42 assessed as bacterial growth inhibition by CLSI protocol based assay; format: functional
[23] = system: Enterobacter cloacae; test: Antibacterial activity against Enterobacter cloacae clinical isolate 41 assessed as bacterial growth inhibition by CLSI protocol based assay; format: functional
[24] = system: Escherichia coli; test: Antibacterial activity against Escherichia coli clinical isolate 42 assessed as bacterial growth inhibition by CLSI protocol based assay; format: functional
[25] = system: Klebsiella pneumoniae; test: Antibacterial activity against Klebsiella pneumoniae clinical isolate 42 assessed as bacterial growth inhibition by CLSI protocol based assay; format: functional
[26] = system: Acinetobacter baumannii; test: In vivo antibacterial activity against multidrug resistant Acinetobacter baumannii NCTC 13420 infected in mouse thigh infection model assessed in reduction in bacterial burden at 30 mg/kg, sc administered at 1 hr post infection and measured after 8 hrs (reference value: 5.4 log10CFU/g); format: functional
[27] = system: Acinetobacter baumannii; test: In vivo antibacterial activity against multidrug resistant Acinetobacter baumannii NCTC 13420 infected in mouse thigh infection model assessed in reduction in bacterial burden at 45 mg/kg, sc administered at 1 hr post infection and measured after 8 hrs (reference value: 5.4 log10CFU/g); format: functional
[28] = system: Acinetobacter baumannii; test: In vivo antibacterial activity against multidrug resistant Acinetobacter baumannii NCTC 13420 infected in mouse thigh infection model assessed in reduction in bacterial burden at 60 mg/kg, sc administered at 1 hr post infection and measured after 8 hrs (reference value: 5.4 log10CFU/g); format: functional
[29] = system: Acinetobacter baumannii; test: In vivo antibacterial activity against multidrug resistant Acinetobacter baumannii NCTC 13420 infected in mouse thigh infection model assessed in reduction in bacterial burden at 120 mg/kg, sc administered at 1 hr post infection and measured after 8 hrs (reference value: 5.4 log10CFU/g); format: functional
[30] = system: Acinetobacter baumannii; test: In vivo antibacterial activity against multidrug resistant Acinetobacter baumannii NCTC 13420 infected in mouse thigh infection model assessed as log change in bacterial burden at 30 mg/kg, sc administered at 1 hr post infection and measured after 8 hrs relative to control; format: functional
[31] = system: Acinetobacter baumannii; test: In vivo antibacterial activity against multidrug resistant Acinetobacter baumannii NCTC 13420 infected in mouse thigh infection model assessed as log change in bacterial burden at 45 mg/kg, sc administered at 1 hr post infection and measured after 8 hrs relative to control; format: functional
[32] = system: Acinetobacter baumannii; test: In vivo antibacterial activity against multidrug resistant Acinetobacter baumannii NCTC 13420 infected in mouse thigh infection model assessed as log change in bacterial burden at 60 mg/kg, sc administered at 1 hr post infection and measured after 8 hrs relative to control; format: functional
[33] = system: Acinetobacter baumannii; test: In vivo antibacterial activity against multidrug resistant Acinetobacter baumannii NCTC 13420 infected in mouse thigh infection model assessed as log change in bacterial burden at 120 mg/kg, sc administered at 1 hr post infection and measured after 8 hrs relative to control; format: functional
[34] = system: Acinetobacter baumannii; test: In vivo antibacterial activity against multidrug resistant Acinetobacter baumannii NCTC 13420 infected in mouse thigh infection model assessed in reduction in bacterial burden at 20 mg/kg, iv administered at 1 hr post infection and measured after 8 hrs (reference value: 5.4 log10CFU/g); format: functional
[35] = system: Acinetobacter baumannii; test: In vivo antibacterial activity against multidrug resistant Acinetobacter baumannii NCTC 13420 infected in mouse thigh infection model assessed as log change in bacterial burden at 20 mg/kg, iv administered at 1 hr post infection and measured after 8 hrs relative to control; format: functional

Row | Compound | IC50 [1] | IC50 [2] | IC50 at 24 h [3] | MIC [4] | MIC [5] | MIC [6] | MIC [7] | MIC [8] | MIC [9] | IC50 [10] | logD [11] | microsomal CLint [12] | microsomal CLint [13] | solubility kinetic [14] | IC50 [16] | MIC [17] | Activity [18] | fraction unbound [20] | MIC90 [21] | MIC90 [22] | further results
1 | COc1ccc2ccc(=O)n(CCN[C@H]3CC[C@H]4[C@H](C3)OC(=O)N4c3ccc4c(n3)NC(=O)CS4)c2n1 | 0.105 µM | 0.024 µM | 35 µg/mL (≈ 67 µM) | 0.015 µg/mL (≈ 0.0287 µM) | 2 µg/mL (≈ 3.83 µM) | 1 µg/mL (≈ 1.91 µM) | 0.12 µg/mL (≈ 0.23 µM) | ≤ 0.002 µg/mL | ≤ 0.002 µg/mL | 4 µM | 2.58 | > 277 µL/min/mg | 267 µL/min/mg | 54 µM (≈ 28.2 µg/mL) | > 100 µM | 0.06 µg/mL (≈ 0.115 µM) |  |  |  |  | fraction unbound [15]: 0.09
2 | N#Cc1ccc2ccc(=O)n(CCN[C@H]3CC[C@H]4[C@H](C3)OC(=O)N4c3ccc4c(n3)NC(=O)CO4)c2c1 | 0.03 µM | 0.23 µM | > 128 µg/mL | 0.25 µg/mL (≈ 0.499 µM) | 2 µg/mL (≈ 4 µM) | 2 µg/mL (≈ 4 µM) | 0.03 µg/mL (≈ 0.0599 µM) | ≤ 0.002 µg/mL | 0.03 µg/mL (≈ 0.0599 µM) | > 100 µM | 1.51 | 125 µL/min/mg | 59 µL/min/mg | 62 µM (≈ 31 µg/mL) | 72.8 µM | 0.25 µg/mL (≈ 0.499 µM) | <7.1 10^-9No_unit |  |  |  | fraction unbound [15]: > 0.3
3 | COc1ccc2ccc(=O)n(CCN[C@H]3CC[C@H]4[C@H](C3)OC(=O)N4c3ccc4c(n3)NC(=O)CO4)c2n1 | 0.055 µM | 0.01 µM | > 64 µg/mL | 0.03 µg/mL (≈ 0.0592 µM) | 4 µg/mL (≈ 7.9 µM) | 1 µg/mL (≈ 1.97 µM) | 0.12 µg/mL (≈ 0.237 µM) | < 0.008 µg/mL | 0.008 µg/mL (≈ 0.0158 µM) | 5 µM | 1.95 | 264 µL/min/mg | 110 µL/min/mg | 76 µM (≈ 38.5 µg/mL) | 14.4 µM | 0.06 µg/mL (≈ 0.118 µM) | <2.4 10^-9No_unit | 0.856 | 0.5 µg/mL (≈ 0.987 µM) | 4 µg/mL (≈ 7.9 µM) | PPB [19]: 15.8%; MIC90 [23]: 4 µg/mL (≈ 7.9 µM); MIC90 [24]: 1 µg/mL (≈ 1.97 µM); MIC90 [25]: 4 µg/mL (≈ 7.9 µM); Fu [15]: 15%; Activity [26]: 7.1 log10CFU/g; Activity [27]: 6.6 log10CFU/g; Activity [28]: 4.4 log10CFU/g; Activity [29]: 3.9 log10CFU/g; Activity [30]: 1.7 log10CFU/g; Activity [31]: 1.2 log10CFU/g; Activity [32]: -1 log10CFU/g; Activity [33]: -1.5 log10CFU/g
4 | COc1ccc2ccc(=O)n(CCN[C@H]3CC[C@H]4[C@@H](C3)OC(=O)N4c3ccc4c(n3)NC(=O)CO4)c2n1 |  |  | > 8 µg/mL | 0.12 µg/mL (≈ 0.237 µM) | 8 µg/mL (≈ 15.8 µM) | 2 µg/mL (≈ 3.95 µM) | 0.5 µg/mL (≈ 0.987 µM) | < 0.008 µg/mL | 0.03 µg/mL (≈ 0.0592 µM) | 3 µM | 2 |  |  |  |  |  |  | 0.919 |  |  | fraction unbound [19]: 0.878
5 | O=c1ccc2ncc(=O)n3c2n1C[C@H]3CN1CCC(NCc2cc3c(cn2)OCCC3)CC1 [GEPOTIDACIN] |  | 0.035 µM | > 128 µg/mL | 16 µg/mL (≈ 35.7 µM) | 16 µg/mL (≈ 35.7 µM) | 2 µg/mL (≈ 4.46 µM) | 0.5 µg/mL (≈ 1.11 µM) | 0.015 µg/mL (≈ 0.0334 µM) | 0.5 µg/mL (≈ 1.11 µM) | > 100 µM | -0.63 |  |  |  | 55.2 µM | 0.03 µg/mL (≈ 0.0669 µM) | <2 10^-8No_unit | < 0.7 | 32 µg/mL (≈ 71.3 µM) | 16 µg/mL (≈ 35.7 µM) | fraction unbound [19]: < 0.7; MIC90 [23]: 16 µg/mL (≈ 35.7 µM); MIC90 [24]: 4 µg/mL (≈ 8.92 µM); MIC90 [25]: 16 µg/mL (≈ 35.7 µM)
6 | C[C@H]1COc2c(N3CCN(C)CC3)c(F)cc3c(=O)c(C(=O)O)cn1c23.C[C@H]1COc2c(N3CCN(C)CC3)c(F)cc3c(=O)c(C(=O)O)cn1c23.O [LEVOFLOXACIN] |  |  |  |  |  |  |  |  |  |  |  |  |  |  |  |  |  |  | 16 µg/mL | 32 µg/mL | MIC90 [23]: 32 µg/mL; MIC90 [24]: 16 µg/mL; MIC90 [25]: 16 µg/mL
7 | CN(C)c1cc(NC(=O)CNC(C)(C)C)c(O)c2c1C[C@H]1C[C@H]3[C@H](N(C)C)C(O)=C(C(N)=O)C(=O)[C@@]3(O)C(O)=C1C2=O [TIGECYCLINE] |  |  |  |  |  |  |  |  |  |  |  |  |  |  |  |  |  |  |  |  | Activity [34]: 4.2 log10CFU/g; Activity [35]: -1.2 log10CFU/g
